Measured values from patent publication US10753892B2, “Non-invasive sensing of free metal ions using ion chemical exchange saturation transfer” (The Johns Hopkins University, priority 2013, dated 2020).
Values joined by “and” are separate entries in the source; they are usually repeats but may differ in a detail not shown here. Equal values may be shown once. “Also recorded” adds a separate entry of the source. Marks after values point to notes of the source that are not given here.

How the values were obtained:
[1] = 19F-iCEST MRI of 5F-BAPTA with Zn2+ (16.4 T, 37° C.); assay type: binding; conditions: 10 mM 5F-BAPTA, 50 μM Zn2+, pH 7.2 and 6.4
Protocol: (§1) 5F-BAPTA was dissolved in Hepes buffer (40 mM) to a final concentration of 10 mM and the pH was adjusted to the following values: 5.6, 6.0, 6.4, 6.8, 7.0, 7.2, and 7.6. Stock 10 mM solutions of CaCl2, MgCl2, and ZnCl2 were prepared in 40 mM Hepes buffer. Five μL of the stock solution was added to 1 mL of 10 mM 5F-BAPTA resulting in a 200:1 ratio (10 mM: 50 μM) between the free 5F-BAPTA and the M^2+ ion following by a pH adjustment. One mL of each sample (with adjusted pH) was transferred into a 8 mm NMR tube within a 25 mm NMR tube in order to center the sample in the coil for the MRI experiments.
(§2) MRI experiments were performed on a vertical 16.4 T scanner (Bruker Avance system) at 37° C. A 25 mm birdcage radiofrequency coil was used to acquire both ^1H and ^19F MR images by sweeping the coil frequency from proton (700 MHz) to fluorine (658.8 MHz) frequency.
(§3) The saturation transfer effect on the free 5F-BAPTA, i.e., the MTR or iCEST, was calculated for each voxel in the image by using a Lorentzian line shape fitting as described in Jones et al. (Magn Reson Med 2012, 67, 1579), and Liu et al. (Molecular imaging 2012, 11, 47).
(§4) Saturation time (tsat) was either 1500 ms to 2000 ms as indicated in the text.

[2] = 19F-CEST experiments with 5F-BAPTA at pH 7.0 (11.7 T NMR, 16.4 T MRI); assay type: binding; conditions: 10 mM 5F-BAPTA, 100 μM M2+, saturation at Δω=5.8 ppm
Protocol: ^19F-CEST experiments were performed on solutions containing 1,2-Bis-[2-bis(carboxymethyl)amino-5-fluorophenoxy]ethane (5F-BAPTA), with and without divalent cations (M^2+).
Experiments were performed on an 11.7T NMR spectrometer (Bruker). 5F-BAPTA (AnaSpec, Inc.) was dissolved in 40 mM HEPES buffer (pH=7.0) to a concentration of 5 mM, and CaCl2 was dissolved to a final Ca^2+ concentration of 50 μm.
^19F-CEST spectra (z-spectra) were acquired with a saturation transfer sequence consisting of a saturation pulse (B1=4.7 μT, 4 sec) with variable offset (from −7.5 to +7.5 ppm relative to the 5FBAPTA frequency set at 0 ppm). Experiments were performed without (room temperature, RT) and with sample heating (37° C.). The MTRasym=100×(S−Δω−S+Δω)/S0 was computed at different offsets Δω, where S0 is the 5F-BAPTA signal without saturation.
Imaging experiments were performed on a 16.4T MRI scanner (Bruker). 5F-BAPTA was dissolved to 10 mM in 40 mM HEPES, pH=7.0, with or without 100 μM of M^2+ (Mg^2+, Zn^2+, or Ca^2+).
^19F-CEST images were acquired using a continuous wave presaturation pulse (B1=3.6 μT, 3 sec) followed by a multi-echo MRI pulse sequence (RARE, rare factor 4, TR/TE=6000/10 ms). FOV of 4×4 cm, matrix 32×32 and slice thickness 10 mm. Mean ^19F-CEST spectra were derived after B0 correction for each voxel using MatLab. MTRasym plots and maps were calculated.

[3] = Relaxation times T1 and T2 of free 5F-BAPTA as a function of pH; assay type: physicochemical; conditions: pH 5.6, estimated from the Bloch equation fitting
[4] = 19F-iCEST MRI of 5F-BAPTA with Ca2+ (16.4 T, 37° C.), Bloch simulations; assay type: binding
Protocol: as §1, §2, §3
Numerical solutions to the six Bloch equations including direct saturation of free 5F-BAPTA were obtained as described previously (McMahon, M. T. et al., Magnetic Resonance in Medicine 2006, 55, 836). The relaxation parameters for ^19F used in the Bloch equations were R1=1/T1 with bound calcium (Rib)=0.71 s^−1, R2 bound calcium (R2b)=29 s^−1, whereas the R1 and R2 values of free 5F-BAPTA (R1f and R2f) were determined experimentally through inversion-recovery and saturation-recovery experiments as a function of pH on solutions containing 20 mM 5F-BAPTA as listed in Table 1 as follows:
as §4
An aqueous solution containing 0.5 mM of 5F-BAPTA and 500 nM in Hepes buffer (40 mM, pH=7.2) was transferred into a 20 mm NMR tube, which was located within a 25 mm NMR tube in order to centralize the sample in the coil for the MRI experiment. The same parameters used for ^19F-iCEST experiments were used except the followings: TR=3000 ms, RARE=8, FOV=6.0 cm (resolution=1.875×1.875 mm), and 168 averages.

[5] = 19F-iCEST MRI of 5F-BAPTA with Mg2+ (16.4 T, 37° C.); assay type: binding
Protocol: as §1, §2, §3, §4

[6] = Relaxation times T1 and T2 of free 5F-BAPTA as a function of pH; assay type: physicochemical; conditions: free 5F-BAPTA 20 mM
Protocol: The same image geometry as in the ^19F-CEST experiments was used for the determination of T1 and T2 of the imaged samples. For T1 measurements, a saturation recovery experiment was performed with TR values of 61, 214, 395, 615, 899, 1296 1964, and 4961 ms. A spin-echo experiment (TR=5000 ms) with multiple echoes was performed with variable echo times (TE=5, 10 15, 20, 25, 30, 35, and 40 ms) to determine the T2 value of each sample.
Numerical solutions to the six Bloch equations including direct saturation of free 5F-BAPTA were obtained as described previously (McMahon, M. T. et al., Magnetic Resonance in Medicine 2006, 55, 836). The relaxation parameters for ^19F used in the Bloch equations were R1=1/T1 with bound calcium (Rib)=0.71 s^−1, R2 bound calcium (R2b)=29 s^−1, whereas the R1 and R2 values of free 5F-BAPTA (R1f and R2f) were determined experimentally through inversion-recovery and saturation-recovery experiments as a function of pH on solutions containing 20 mM 5F-BAPTA as listed in Table 1 as follows: […]

[7] = cited from earlier work
[8] = Bloch simulations, two pool model
Protocol: (§5) Experiments were performed on solutions containing TF-BAPTA and multiple biologically relevant metal ions (K^+, Na^+, Ca^2+, Mg^2+, Cu^2+, Fe^2+ and Zn^2+) at 37° C. and pH=7.4. MR Spectroscopy as follows: TF-BAPTA was dissolved to a final concentration of 5 mM, and ions were add at 500 μM. Using 5-Fluorocytosine (5-FC) as an internal ^19F reference, ^19F-NMR spectra were acquired (11.7 T NMR spectrometer, Bruker). MRI: Experiments were performed on a 17.6 T MRI scanner (Bruker). TF-BAPTA was dissolved to 10 mM with 200″ AM of ion. A RARE (factor 8) sequence was used to acquire 1H MRI (TR/TE=5,000/7.7 ms, 1 mm slice, FOV=2×2 cm, matrix size=128×128). For ^19F MRI, the center frequency (O1) was set at the frequency of the 19F atom at the 6 position (0.0 ppm) of TF-BAPTA (FIG. 1a), while signal from the ^19F located at the 5 position of TF-BAPTA (FIG. 1a-b, 4.5 ppm downfield) was suppressed. A modified RARE sequence (TR/TE=4,000/3.4 ms, RARE factor=16, 6 mm slice, FOV=2×2 cm, matrix size=32×32, and a saturation pulse B1=1.2, 2.4 or 3.6 ItT/2 s) were used to acquire ^19F iCEST. Mean ^19F Z-spectra (iCEST spectra), were obtained after B0 correction. CEST contrasts, i.e., the magnetization transfer ratio (MTR) images were calculated after Lorentzian line shape fitting.

[9] = London et al., 1994; cited from earlier work
[10] = Bloch simulations, two pool model; remark: listed apart in the source
Protocol: as §5

With `O=C(O)CN(CC(=O)O)c1ccc(F)cc1OCCOc1cc(F)ccc1N(CC(=O)O)CC(=O)O` [5F-BAPTA, 2,2′,2″,2′″-(2,2′-(Ethane-1,2-diylbis(oxy))bis(4-fluoro-2,1-phenylene))bis(azanetriyl)tetraacetic acid] the “iCEST contrast, Zn2+ containing sample” value [1] was “did not generate iCEST contrast”, the “19F-CEST MRI contrast among tubes with no M2+, Mg2+, Zn2+ or Ca2+” value [2] was “only the Ca^2+ containing solution generated contrast” and the “T2 (ms)” value [3] was 6^a ms. For the same compound, the “Ca2+ concentration detected by iCEST” value ([4]; 0.5 mM 5F-BAPTA, pH 7.2) was 500 nM, the “iCEST (saturation transfer) contrast, Ca2+ containing sample” value ([4]; 10 mM 5F-BAPTA, 50 μM Ca2+, pH 7.2 and 6.4, B1=3.6 μT/2000 ms) was “pronounced saturation transfer contrast was detected; also recorded: large iCEST contrast was detected” and the “kex between [Ca-5F-BAPTA] and 5F-BAPTA” value ([4]; Bloch simulations, all examined pH values) was 190 s⁻¹ and 190 ± 10 s⁻¹. For the same compound, the “Ca2+ specificity in a Zn2+ background” value ([4]; iCEST, FIGS. 13a-c) was “high Ca^2+ specificity”, the “Ca2+ specificity in a Mg2+ background” value ([4]; iCEST, FIGS. 14a-c) was “high Ca^2+ specificity” and the “amplification factor for Ca2+” value ([4]; iCEST, kex 190 s−1) was ~100. For the same compound, the “iCEST contrast in the Z-spectrum” value ([4]; χCa=1:1000, 5 mM 5F-BAPTA, pH 7.2) was ~11%, the “iCEST contrast, Mg2+ containing sample” value ([5]; 10 mM 5F-BAPTA, 50 μM Mg2+, pH 7.2 and 6.4) was “did not generate iCEST contrast” and the “amplification factor for Mg2+” value ([5]; iCEST, FIG. 10b) was 10. The “T1” value ([6]; pH 5.6) was 715 ms, the “T1” value ([6]; pH 6.0) was 715 ms and the “T2” value ([6]; pH 6.0) was 10 ms. The “T1” value ([6]; pH 6.4) was 715 ms, the “T2” value ([6]; pH 6.4) was 11 ms and the “T1” value ([6]; pH 6.8) was 715 ms. For the same compound, the “T2” value ([6]; pH 6.8) was 25 ms, the “T1” value ([6]; pH 7.0) was 715 ms and the “T2” value ([6]; pH 7.0) was 32 ms. For the same compound, the “T1” value ([6]; pH 7.2) was 715 ms, the “T2” value ([6]; pH 7.2) was 38 ms and the “T1” value ([6]; pH 7.6) was 715 ms.
In the case of `O=C(O)CN(CC(=O)O)c1ccccc1OCCOc1ccccc1N(CC(=O)O)CC(=O)O` [BAPTA, 1,2-bis(o-aminophenoxy)ethane-N,N,N′,N′-tetraacetic acid], the “selectivity for Ca2+ over Mg2+” value [7] is listed as > 10^5 and the “iCEST contrast produced by Ca2+ in mixtures” value ([4]; 50 μM Ca2+ with 200 μM Mg2+ or 50 μM Zn2+, 10 mM chelate, pH 7.2, Δω=6 ppm) is listed as ~22%.
In the case of `O=C(O)CN(CC(=O)O)c1cc(F)c(F)cc1OCCOc1cc(F)c(F)cc1N(CC(=O)O)CC(=O)O` [TF-BAPTA, 5,5′, 6,6′-tetrafluoro-BAPTA], the “exchange rate (kex) between free and Fe2+-bound TF-BAPTA” value [8] is listed as ~20 s⁻¹, the “exchange rate of Ca2+ with TF-BAPTA” value [9] is listed as ~30,000 s−1 and the “exchange rate (kex) between free and Zn2+-bound TF-BAPTA” value [10] is listed as ~20 s⁻¹.
